In one data set the target is DDX3X (Homo sapiens, UniProt O00571). Put plainly: Helicase assay (unwinding of 18/36mer dsRNA). Type of data set: biochemical. Also on record: host or cells: 293T cells (transient transfection, anti-HA immunoprecipitation, protein kept on beads). The note with it: 50, 250 and 500 µM, in presence of ATP. As to the method: The DDX3X protein was obtained by immunoprecipitation from 293T cells (3x10^5) were seeded in 6-well plates and, after 24h, transfected with 1 µg of HA-DDX3 (Addgene plasmid # 44975) by using the Lipofectamine reagent (Thermo Fischer Scientific). After 36 h, cells were lysed in NP-40 Lysis Buffer (20 mM HEPES pH=7.5, 10 mM EGTA pH=8, 40 mM β-glycerolphosphate, 1% NP40, 2.5 mM MgCl2, 2 mM Orthovanadate, 2 mM NaF, 1 mM DTT, and 1X protease inhibitors mixture) and 2 mg of proteins were immunoprecipitated with anti-HA antibodies (Covance) in NP40 lysis buffer. Immunoprecipitated samples were washed twice with lysis buffer and one time in helicase reaction buffer (50 mM Tris HCl pH=8, 1 mM DTT, 5% glycerol, 10 mM MgCl2). Beads were then resuspended in 100 µl in helicase reaction buffer. […]
Ultimately, reactions were performed in a final volume 100 µl of helicase reaction buffer plus ATP 4 mM, 30 µl of beads used to immunoprecipitate HA-DDX3X, 20 nM of 18/36mer dsRNA and 100 nM of competitor at 37°C for 1 hour and stopped by adding 10 µl of a stopping solution (EDTA 60 mM pH=8, 40% glycerol, 0.6% SDS, 1% Orange G). […] Quantification of the ssRNA was performed by the ImageJ software (version 1.53, NIH). […]

The nature of data set [1]: Tissue distribution after single I.P. administration. Type of data set: in vivo, male Swiss Albino Mice. As to the method:
The pharmacokinetic study was performed in male Swiss albino mice from Hylasco Biotechnology Pvt. Ltd. (A Charles River technology Licensee). The tissue distribution study was performed in male Swiss albino mice and in male FOXN1^nu/nu nude mice (Envigo spa). The efficacy study was performed in male FOXN1^nu/nu nude mice.
Single intraperitoneal administration studies were done as follows: • 1. Compound 5 • dose 1: 45 mg/kg • dose concentration: […] in 10% DMSO, 5% TWEEN 80 and WFI (85%) • volume: 5 ml/kg • blood withdrawal time points: 0.25, 0.5, 1, 2, 4, 6, 8, 24 hours post administration • brain, liver and lungs collected at 4, 8 and 24 hours • 2. Compound 5 • dose 2: 10 mg/kg • dose concentration: 2 mg/ml in 10% DMSO, 10% Solutol and WFI (90%). • volume: 5 ml/kg • blood withdrawal time points: 0.25, 0.5, 1, 2, 4, 6, 8, 24 hours post administration
Selected organs were collected at 4, 8 and 24 hours for drug distribution studies: mice were anesthetized and intra-cardiac whole body perfusion was performed using chilled saline. Separated tissues were immediately washed, dried, weighed and frozen at -80±10°C until homogenization. The levels of compound in the tissues and in plasma were quantified by LC-MS/MS, using as instrument Q-TRAP 500, with a column Phenomenex, KINETEX 5µ EVO C18 50 mm X 4.5 mm (Phenomenex). The mobile phase employed was composed as follows: aqueous reservoir, 10 mM Ammonium Acetate with 0.1% Formic acid in MilliQ water; organic reservoir, Acetonitrile:Methanol (50:50, v/v); flow rate 1 ml/min; injection volume 10µl; rinsing solution, Acetonitrile:Methanol:Water (20:60:20, v/v).
Distribution to tissues is expressed as ratio between the compound level in tissues (ng compounds/ mg tissue) divided by the compound levels in blood (ng/ml), considering 1 ml of blood equal to […].

Setting [2] is: 4 hours after single administration I.P. 45 mg/Kg.
Setting [3] is: 8 hours after single administration I.P. 45 mg/Kg.
[4] abbreviates: 24 hours after single administration I.P. 45 mg/Kg.

DDX3X, sequence (O00571 whole entry): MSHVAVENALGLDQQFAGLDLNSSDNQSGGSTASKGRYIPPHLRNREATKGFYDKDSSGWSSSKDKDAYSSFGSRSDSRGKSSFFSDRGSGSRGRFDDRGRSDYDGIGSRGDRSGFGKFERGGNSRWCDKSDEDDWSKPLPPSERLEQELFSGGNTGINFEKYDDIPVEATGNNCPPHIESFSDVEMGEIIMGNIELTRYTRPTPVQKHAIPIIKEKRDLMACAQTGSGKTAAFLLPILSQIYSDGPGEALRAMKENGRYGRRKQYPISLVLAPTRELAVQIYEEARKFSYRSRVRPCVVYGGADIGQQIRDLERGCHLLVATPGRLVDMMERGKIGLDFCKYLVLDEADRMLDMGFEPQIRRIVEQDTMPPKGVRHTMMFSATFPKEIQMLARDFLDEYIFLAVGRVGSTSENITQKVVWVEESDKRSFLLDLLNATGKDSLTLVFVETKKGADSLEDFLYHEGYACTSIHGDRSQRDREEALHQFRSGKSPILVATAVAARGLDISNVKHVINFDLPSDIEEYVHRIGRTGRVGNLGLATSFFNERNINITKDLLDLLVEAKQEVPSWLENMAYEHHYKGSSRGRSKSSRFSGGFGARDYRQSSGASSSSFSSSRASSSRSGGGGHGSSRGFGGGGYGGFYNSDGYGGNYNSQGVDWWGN

As for `CCCCc1cn(-c2ccc(-c3nnc(-c4ccccc4C(F)(F)F)o3)cc2)nn1` [Compound 5], the “inhibitory effect on DDX3X helicase activity” value at DDX3X is “inhibitory effect on DDX3X helicase activity”. The Liver to plasma came to 11.2 in data set [1] (setting [2]), 9.2 in data set [1] (setting [3]) and 9.2 in data set [1] (setting [4]). The values for the Plasma in data set [1] (setting [2]), in data set [1] (setting [3]) and in data set [1] (setting [4]) were 2171 ng/mL, 775 ng/mL and 273 ng/mL, respectively. Also, the Kp at 4 h in data set [1] (mouse, brain, ip, 4 hours after single administration I.P. 45 mg/Kg, read-out: Brain to plasma) came out at 2.4. Moreover, the Kp at 8 h in data set [1] (mouse, brain, ip, 8 hours after single administration I.P. 45 mg/Kg, read-out: Brain to plasma) worked out at 2.1. For the same molecule, the Kp at 24 h in data set [1] (mouse, brain, ip, 24 hours after single administration I.P. 45 mg/Kg, read-out: Brain to plasma) was 1.75.
